According to ChEMBL document CHEMBL1154018, “Esters of betulin and betulinic acid with amino acids have improved water solubility and are selectively cytotoxic toward cancer cells” (Bioorg Med Chem Lett, 2009):

What was measured:
[1] = Cytotoxicity against human EPP85-181P cells after 24 hrs by SRB method; type: functional, cell-based
[2] = Cytotoxicity against daunorubicin-resistant human EPP85-181RDB cells after 24 hrs by SRB method; type: functional, cell-based
[3] = Cytotoxicity against human EPG85-257P cells after 24 hrs by SRB method; type: functional, cell-based
[4] = Cytotoxicity against daunorubicin-resistant human EPG85-257RDB cells after 24 hrs by SRB method; type: functional, cell-based
[5] = Aqueous solubility in DMSO solution at 1 mg; type: physicochemical
[6] = Induction of apoptosis in human EPP85-181P cells assessed as cell accumulation at apoptotic phase after 24 hrs by comet assay; type: functional
[7] = Induction of apoptosis in human EPP85-181P cells assessed as normal cells after 24 hrs by comet assay; type: functional
[8] = Induction of apoptosis in human EPG85-257P cells assessed as cell accumulation at apoptotic phase after 24 hrs by comet assay; type: functional
[9] = Induction of apoptosis in human EPG85-257P cells assessed as normal cells after 24 hrs by comet assay; type: functional
[10] = Chemical stability in 0.02M phosphatre buffer of pH 7.4 after 6 days by RP-HPLC; type: physicochemical; settings: pH 7.4, 144 h

Structure (SMILES)	solubility [5]	Stability [10]	IC50 [1] [µM]	IC50 [2] [µM]	IC50 [3] [µM]	IC50 [4] [µM]	Activity [6] [%]	Activity [7] [%]	Activity [8] [%]	Activity [9] [%]
C=C(C)[C@@H]1CC[C@]2(C(=O)O)CC[C@]3(C)[C@H](CC[C@@H]4[C@@]5(C)CC[C@H](OC(=O)[C@@H](N)CC)C(C)(C)[C@@H]5CC[C@]43C)[C@@H]12	Soluble		26	> 50	33	> 50	69.6	30.4	1.7	98.3
C=C(C)[C@@H]1CC[C@]2(COC(=O)[C@@H](N)CCSC)CC[C@]3(C)[C@H](CC[C@@H]4[C@@]5(C)CC[C@H](OC(=O)[C@@H](N)CCSC)C(C)(C)[C@@H]5CC[C@]43C)[C@@H]12	Soluble		22	> 50	31	> 50	24.7	75.3	15.1	84.9
C=C(C)[C@@H]1CC[C@]2(C(=O)O)CC[C@]3(C)[C@H](CC[C@@H]4[C@@]5(C)CC[C@H](OC(=O)[C@@H](N)Cc6ccccc6)C(C)(C)[C@@H]5CC[C@]43C)[C@@H]12	Soluble		> 50	> 50	> 50	> 50	3.1	96.9	2.5	97.5
C=C(C)[C@@H]1CC[C@]2(C(=O)O)CC[C@]3(C)[C@H](CC[C@@H]4[C@@]5(C)CC[C@H](OC(=O)[C@@H](N)CCCN)C(C)(C)[C@@H]5CC[C@]43C)[C@@H]12	Soluble		14	> 50	9.7	> 50	99	1		
C=C(C)[C@@H]1CC[C@]2(COC(=O)[C@@H](N)Cc3ccccc3)CC[C@]3(C)[C@H](CC[C@@H]4[C@@]5(C)CC[C@H](OC(=O)[C@@H](N)Cc6ccccc6)C(C)(C)[C@@H]5CC[C@]43C)[C@@H]12	Soluble		> 50	> 50	> 50	> 50	1	99	9	91
C=C(C)[C@@H]1CC[C@]2(COC(=O)[C@@H](N)CCCCN)CC[C@]3(C)[C@H](CC[C@@H]4[C@@]5(C)CC[C@H](OC(=O)[C@@H](N)CCCCN)C(C)(C)[C@@H]5CC[C@]43C)[C@@H]12	Soluble	Stable	3.8	18	4.1	> 50	99.5	0.5	100	0
C=C(C)[C@@H]1CC[C@]2(C(=O)O)CC[C@]3(C)[C@H](CC[C@@H]4[C@@]5(C)CC[C@H](O)C(C)(C)[C@@H]5CC[C@]43C)[C@@H]12 [BETULINIC ACID]	Soluble		32	> 50	42	> 50	16	84	4	96
C=C(C)[C@@H]1CC[C@]2(CO)CC[C@]3(C)[C@H](CC[C@@H]4[C@@]5(C)CC[C@H](O)C(C)(C)[C@@H]5CC[C@]43C)[C@@H]12 [BETULIN]	Insoluble		> 50	46	26	> 50	2	98	0.5	99.5

More lines, main results first:

solubility [5]	Stability [10]	Structure (SMILES)	IC50 [1] [µM]	IC50 [2] [µM]	IC50 [3] [µM]	IC50 [4] [µM]	Activity [6] [%]	Activity [7] [%]	Activity [8] [%]	Activity [9] [%]
Soluble		C=C(C)[C@@H]1CC[C@]2(COC(=O)[C@H](C)N)CC[C@]3(C)[C@H](CC[C@@H]4[C@@]5(C)CC[C@H](O)C(C)(C)[C@@H]5CC[C@]43C)[C@@H]12	> 50	> 50	38	> 50	5.2	94	42	58
Soluble		C=C(C)[C@@H]1CC[C@]2(C(=O)O)CC[C@]3(C)[C@H](CC[C@@H]4[C@@]5(C)CC[C@H](OC(=O)[C@H](C)N)C(C)(C)[C@@H]5CC[C@]43C)[C@@H]12	> 50	> 50	48	> 50	25.9	74.1	1.4	98.6
Soluble		C=C(C)[C@@H]1CC[C@]2(COC(=O)CN)CC[C@]3(C)[C@H](CC[C@@H]4[C@@]5(C)CC[C@H](OC(=O)CN)C(C)(C)[C@@H]5CC[C@]43C)[C@@H]12	> 50	> 50	> 50	> 50	0.5	99.5		
Soluble		C=C(C)[C@@H]1CC[C@]2(COC(=O)[C@H](C)N)CC[C@]3(C)[C@H](CC[C@@H]4[C@@]5(C)CC[C@H](OC(=O)[C@H](C)N)C(C)(C)[C@@H]5CC[C@]43C)[C@@H]12	4.6	21	17	> 50	100	0	100	0
Soluble		C=C(C)[C@@H]1CC[C@]2(COC(=O)CN)CC[C@]3(C)[C@H](CC[C@@H]4[C@@]5(C)CC[C@H](O)C(C)(C)[C@@H]5CC[C@]43C)[C@@H]12	> 50	> 50	> 50	> 50	1.4	98.6	9.8	90.2
